According to patent US9255072B2, “Pyrazole compounds and thiazole compounds as protein kinases inhibitors” (National Health Rsearch Institutes, priority 2011, dated 2016):
Read-outs that look alike come from different tables or passages of the source.

Columns and labels:
wt-FLT3 = biological target: T1, wt-FLT3 (Homo sapiens, UniProt P36888); assay: FLT3 WT Kinase-Glo assay; assay type: biochemical; conditions: table of representative values; read-out: IC50 (nM) wt-FLT3
T1 construct: FLT3 kinase catalytic domain (residues Y567˜S993); made in house; host or cells: Sf9 insect cells (baculovirus, pBac-PAK8-GST-FLT3-KD plasmid)
T1 sequence (P36888 567-993): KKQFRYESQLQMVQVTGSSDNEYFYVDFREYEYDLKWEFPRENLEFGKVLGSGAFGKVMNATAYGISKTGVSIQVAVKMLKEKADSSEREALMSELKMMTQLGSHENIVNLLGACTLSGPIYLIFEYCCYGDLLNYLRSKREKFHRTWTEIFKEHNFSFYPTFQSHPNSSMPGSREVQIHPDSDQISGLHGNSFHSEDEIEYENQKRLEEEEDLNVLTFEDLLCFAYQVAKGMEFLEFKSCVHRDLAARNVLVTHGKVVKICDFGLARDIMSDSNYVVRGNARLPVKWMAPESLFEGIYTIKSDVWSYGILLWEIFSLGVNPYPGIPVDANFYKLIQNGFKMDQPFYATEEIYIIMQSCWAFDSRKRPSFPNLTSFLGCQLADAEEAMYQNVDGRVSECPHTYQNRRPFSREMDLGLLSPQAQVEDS
Experimental: GST-FLT3-KD^WT containing the FLT3 kinase catalytic domain (residues Y567˜S993) were expressed in Sf9 insect cells transfected the baculovirus containing pBac-PAK8-GST-FLT3-KD plasmid. […] Following incubation, 50 μl Kinase-Glo Plus Reagent (Promega, Madison, Wis., USA) was added to each well and the mixture was incubated at 25° C. for 20 min. A 70-μL aliquot of each reaction mixture was transferred to a black microtiter plate and the luminescence was measured on Wallac Vector 1420 multilabel counter (PerkinElmer, Shelton, Conn., USA).

VEGFR1 = biological target: T2, VEGFR1 (Homo sapiens, UniProt P17948); assay: VEGFR1 Kinase-Glo kinase assay; assay type: biochemical
T2 construct: GST-VEGFR1 (residues R781-I1338); GST (N); made in house; host or cells: Sf9 insect cells
T2 sequence (P17948 781-1338): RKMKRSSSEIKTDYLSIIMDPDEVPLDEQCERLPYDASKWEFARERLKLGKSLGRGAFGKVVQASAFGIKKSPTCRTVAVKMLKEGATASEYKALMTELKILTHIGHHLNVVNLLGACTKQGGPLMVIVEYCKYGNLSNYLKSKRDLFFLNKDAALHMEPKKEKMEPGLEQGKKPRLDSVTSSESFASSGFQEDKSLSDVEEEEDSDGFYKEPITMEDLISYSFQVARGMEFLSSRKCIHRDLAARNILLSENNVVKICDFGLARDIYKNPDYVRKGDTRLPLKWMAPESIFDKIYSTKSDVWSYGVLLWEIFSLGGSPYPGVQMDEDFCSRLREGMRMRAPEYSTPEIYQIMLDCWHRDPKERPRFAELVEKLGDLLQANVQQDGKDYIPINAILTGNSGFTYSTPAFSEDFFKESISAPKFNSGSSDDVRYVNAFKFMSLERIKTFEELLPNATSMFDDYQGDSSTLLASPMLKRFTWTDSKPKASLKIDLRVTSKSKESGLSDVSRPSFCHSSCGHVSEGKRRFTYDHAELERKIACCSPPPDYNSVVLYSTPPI
Experimental: (§1) The recombinant GST-VEGFR1 (residues R781-I1338) or GST-VEGFR2 (residues V789-V1356) containing kinase domain were expressed in Sf9 insect cells. The kinase assay were carried out in 96-well plates with tested compound in a final volume of 50 μl reaction at 30° C. for 120 minutes with following components: 25 mM HEPES pH 7.4, 10 mM MgCl2, 4 mM MnCl2, 0.5 mM Na3VO4, 2 mM DTT, 0.02% Triton X100, 0.01% BSA, 1 μM ATP, 2 μM polyGlu4:Tyr peptide, 50˜100 ng recombinant VEGFR1 or VEGFR2. Following incubation, 50 μl Kinase-Glo Plus Reagent (Promega, Madison, Wis., USA) was added to each well and the mixture was incubated at 25° C. for 20 min. A 70-μL aliquot of each reaction mixture was transferred to a black microtiter plate and the luminescence was measured on Wallac Vector 1420 multilabel counter (PerkinElmer, Shelton, Conn., USA).

VEGFR2 = biological target: T3, VEGFR2 (Homo sapiens, UniProt P35968); assay: VEGFR2 Kinase-Glo kinase assay; assay type: biochemical
T3 construct: GST-VEGFR2 (residues V789-V1356); GST (N); made in house; host or cells: Sf9 insect cells
Experimental: as §1

Aurora A = biological target: T4, Aurora A (Homo sapiens, UniProt O14965); assay: Aurora kinase A Kinase-Glo kinase assay; assay type: biochemical
T4 construct: GST-Aurora A (residues S123-S401); GST (N); made in house; host or cells: Sf9 insect cells
T4 sequence (O14965 123-401): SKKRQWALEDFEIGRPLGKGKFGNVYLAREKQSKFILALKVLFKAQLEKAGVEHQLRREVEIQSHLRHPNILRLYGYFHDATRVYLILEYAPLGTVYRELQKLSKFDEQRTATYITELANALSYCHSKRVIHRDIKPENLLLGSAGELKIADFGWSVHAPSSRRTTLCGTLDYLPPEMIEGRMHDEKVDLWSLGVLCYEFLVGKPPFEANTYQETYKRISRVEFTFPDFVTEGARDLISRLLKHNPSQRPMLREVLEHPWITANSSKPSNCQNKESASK
Experimental: The recombinant GST-Aurora A (residues S123-S401) containing kinase domain were expressed in Sf9 insect cells. The kinase assay were carried out in 96-well plates with tested compound in a final volume of 50 μl reaction at 37° C. for 90 minutes with following components: 50 mM Tris-HCl pH 7.4, 10 mM NaCl, 10 mM MgCl2, 0.01% BSA, 5 μM ATP, 1 mM DTT and 15 μM tetra(LRRASLG) peptide, and 150 ng recombinant Aurora A. Following incubation, 50 μl Kinase-Glo Plus Reagent (Promega, Madison, Wis., USA) was added to each well and the mixture was incubated at 25° C. for 20 min. A 70-μL aliquot of each reaction mixture was transferred to a black microtiter plate and the luminescence was measured on Wallac Vector 1420 multilabel counter (PerkinElmer, Shelton, Conn., USA).

MOLM-13 cell = assay: MTS cell viability assay; assay type: cell-based; conditions: Homo sapiens, MOLM-13, 72 h, table of representative values
Description: The leukemias cell lines MOLM-13, MV4:11, RSV4:11, MOLT-4, U937, and K562 were purchased from American Type Culture Collection (ATCC, Manassas, Va., USA). The non-leukemias cell lines HCC827, H1975, NCIH460, A431, Huh7, SF268, MCF-7, HCT-116, and normal human fetal fibroblast cell line Detriot 551 were purchased from American Type Culture Collection (ATCC, Manassas, Va., USA). All leukemias cell lines and HCC827, H1975, NCIH460, A431 were maintained in RPMI 1640 medium supplemented with 10% fetal bovine serum (FBS), 10 U/ml penicillin, and 10 µg/ml streptomycin at 37° C. and 5% CO2. The cell lines Huh7, SF268, MCF-7, and Detroit 551 were cultured in DMEM medium supplemented with 10% FBS, 0.01% nonessential amino acids, 10 U/ml penicillin, and 10 µg/ml streptomycin. HCT-116 were cultured in McCoy's 5A medium supplemented with 10% FBS, 0.01% nonessential amino acids, 10 U/ml penicillin, and 10 µg/ml streptomycin. To determine cell viability after drug treatment, assays were performed by seeding 10,000 cells (leukemias cell lines) or 2,500 cells (non-leukemias cell lines) per well in a 96-well culture plate. After 16 h, cells were then treated with vehicle or various concentrations of compound in medium for 72 h. Viable cells were quantitated using the MTS method (Promega, Madison, Wis., USA) according to the manufacturer's recommended protocol. The results were determined by measuring the absorbance at 490 nm using a plate reader (Victor2; PerkinElmer, Shelton, Conn., USA).

[1] = VEGFR1 assay, 1 μM ATP, bound in μM, read-out: IC50
[2] = table of representative values, read-out: IC50 (nM) VEGFR1
[3] = VEGFR2 assay, 1 μM ATP, bound in μM, read-out: IC50
[4] = table of representative values, read-out: IC50 (nM) VEGFR2
[5] = Aurora A assay, 5 μM ATP, bound in nM, read-out: IC50
[6] = Aurora A assay, 5 μM ATP, bound in μM, read-out: IC50
[7] = table of representative values, read-out: IC50 (nM) Aurora A
[8] = VEGFR1 assay, 1 μM ATP, bound in nM, read-out: IC50
[9] = VEGFR2 assay, 1 μM ATP, ranges in nM, read-out: IC50

T3 sequence (P35968 789-1356): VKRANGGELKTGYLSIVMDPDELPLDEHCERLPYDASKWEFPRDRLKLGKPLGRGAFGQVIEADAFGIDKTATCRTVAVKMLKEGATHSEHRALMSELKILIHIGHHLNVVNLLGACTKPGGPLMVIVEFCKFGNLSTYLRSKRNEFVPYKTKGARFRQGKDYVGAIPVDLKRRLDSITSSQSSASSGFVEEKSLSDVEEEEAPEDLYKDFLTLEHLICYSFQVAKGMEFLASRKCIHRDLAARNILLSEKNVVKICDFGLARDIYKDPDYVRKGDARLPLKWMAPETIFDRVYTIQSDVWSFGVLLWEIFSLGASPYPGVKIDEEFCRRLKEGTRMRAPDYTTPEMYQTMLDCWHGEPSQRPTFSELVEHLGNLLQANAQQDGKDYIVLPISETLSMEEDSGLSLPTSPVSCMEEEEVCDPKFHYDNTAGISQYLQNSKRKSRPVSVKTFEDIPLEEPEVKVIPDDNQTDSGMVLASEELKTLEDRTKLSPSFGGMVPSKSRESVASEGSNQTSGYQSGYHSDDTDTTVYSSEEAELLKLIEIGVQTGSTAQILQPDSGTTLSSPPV

Row | Compound | IC50 (wt-FLT3) | IC50 (VEGFR1; [1]) | IC50 (VEGFR1; [2]) | IC50 (VEGFR2; [3]) | IC50 (VEGFR2; [4]) | IC50 (Aurora A; [5]) | IC50 (Aurora A; [6]) | IC50 (Aurora A; [7]) | GI50 (MOLM-13 cell) | IC50 (VEGFR1; [8]) | IC50 (VEGFR2; [9])
1 | CCc1cc(NC(=O)Nc2ccc(-c3cc(NC(=O)c4ccc(OCCN5CCOCC5)cc4)[nH]n3)cc2C)no1 [Compound 46b, N1-3-[4-([(5-ethyl-3-isoxazolyl)amino]carbonylamino)-3-methylphenyl]-1H-5-pyrazolyl-4-(2-morpholinoethoxy)benzamide] | 27 nM | < 1 µM | 0.29 µM | < 1 µM | 0.151 µM | < 200 nM | < 1000 nM | 22 nM | 1 nM | – | –
2 | Cc1cc(-c2cc(NC(=O)c3ccc(OCCN4CCOCC4)cc3)[nH]n2)ccc1NC(=O)Nc1cc(C2CC2)on1 [Compound 46c, N1-3-[4-([(5-cyclopropyl-3-isoxazolyl)amino]carbonylamino)-3-methylphenyl]-1H-5-pyrazolyl-4-(2-morpholinoethoxy)benzamide] | 38 nM | < 1 µM | 0.053 µM | < 1 µM | 0.037 µM | < 200 nM | < 1000 nM | 41 nM | 2 nM | < 0.1 µM | 0.001 to 0.055 µM
3 | O=C(NCc1ccc(-c2cc(NC(=O)c3ccc(OCCN4CCOCC4)cc3)[nH]n2)cc1)Nc1cc(C2CC2)on1 [Compound 59d, N1-(3-4-[([(5-cyclopropyl-3-isoxazolyl)amino]carbonylamino)methyl]phenyl-1H-5-pyrazolyl)-4-(2-morpholinoethoxy)benzamide] | 21 nM | < 1 µM | 0.342 µM | < 1 µM | 0.045 µM | – | – | – | 6 nM | – | 0.001 to 0.055 µM
4 | CCc1cc(NC(=O)NCc2ccc(-c3cc(NC(=O)c4ccc(CN5CCN(C)CC5)cc4)[nH]n3)cc2)no1 [Compound 62b, N1-(3-4-[([(5-ethyl-3-isoxazolyl)amino]carbonylamino)methyl]phenyl-1H-5-pyrazolyl)-4-[(4-methylpiperazino)methyl]benzamide] | 26 nM | < 1 µM | 0.029 µM | < 1 µM | 0.037 µM | – | – | > 1000 nM | 2 nM | < 0.1 µM | 0.001 to 0.055 µM
5 | CN1CCN(Cc2ccc(C(=O)Nc3cc(-c4ccc(CNC(=O)Nc5cc(C6CC6)on5)cc4)n[nH]3)cc2)CC1 [Compound 62d, N1-(3-4-[([(5-cyclopropyl-3-isoxazolyl)amino]carbonylamino)methyl]phenyl-1H-5-pyrazolyl)-4-[(4-methylpiperazino)methyl]benzamide] | 38 nM | < 1 µM | 0.18 µM | < 1 µM | 0.023 µM | – | – | – | 3 nM | – | 0.001 to 0.055 µM
